How the values were obtained:
[1] = system: ORYSAT (Rice, Tebonnet); experiment: Postemergence herbicidal evaluation; type: in vivo, Oryza sativa, (L.) Tebonnet; settings: postemergence
Procedure, shortened: (§1)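 Each compound, dispersed in an acetone/water mix (50/50) carrying 0.5% TWEEN 20, is nozzle-sprayed at 40 psi on approximately two-week-old seedlings at about 0.0156–0.500 kg/ha. Plants are assessed 4–5 weeks afterward on a 0–9 scale relative to control; duplicate tests are averaged.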

[2] = system: ZEAMX (Corn, Field); experiment: Preemergence herbicidal evaluation; type: in vivo, Zea mays; settings: preemergence, rated 4-5 weeks after treatment, 0-9 scale
Procedure, shortened: (§2)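 Test compound, dissolved in aqueous acetone, was sprayed over planted soil cups at an equivalent of about 0.0156 to 0.500 kg/ha; seeds had been mixed with potting soil. Greenhouse growth followed, with visual 0-9 scoring of injury at four to five weeks.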

[3] = system: CASOB (Sicklepod); experiment: Postemergence herbicidal evaluation; type: in vivo, Cassia obtusifolia; settings: postemergence
Procedure, shortened: as §1

[4] = system: MOOVA (Monochoria); experiment: Preemergence weed control under flooded paddy conditions; type: in vivo, Monochoria vaginalis; settings: rated 3-4 weeks after treatment
Procedure, shortened: (§3)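 Values are visual 0-9 scores against a control for a preemergence application into paddy flood water at about 0.0313 to 0.500 kg/ha. Greenhouse duration was three to four weeks.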

[5] = system: CYPSE (Flatsedge); experiment: Postemergence weed control under flooded paddy conditions; type: in vivo, Cyperus serotinus; settings: postemergence weeds, rated 3 to 4 weeks after treatment
Procedure, shortened: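 Herbicidal effect is judged by eye on a 0–9 scale versus control, 3–4 weeks after dosing. Dosing is into flood water kept 1.5–3 cm over the soil, at about 0.0313–0.500 kg/ha in aqueous/acetone 50/50 v/v, on 3–5 cm weeds and 1.5–2.5-leaf rice seedlings.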

[6] = system: SAGPY (Arrowhead (Pygmaea)); experiment: Preemergence weed control under flooded paddy conditions; type: in vivo, Sagittaria pygmaea; settings: rated 3-4 weeks after treatment
Procedure, shortened: as §3

[7] = system: CYPIR (Rice Flatsedge); experiment: as above; type: in vivo, Cyperus iria; settings: rated 3-4 weeks after treatment
Procedure, shortened: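 Visual injury scored 0-9 against control three to four weeks post-treatment, greenhouse-grown. Application: acetone/water (50/50) solutions dosed directly into flood water (1.5-3 cm over silt loam, planted top 0.5 cm), roughly 0.0313 to 0.500 kg/ha active ingredient.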

[8] = system: ECHCG (Barnyardgrass); experiment: Postemergence herbicidal evaluation; type: in vivo, Echinochloa crus-galli; settings: postemergence
Procedure, shortened: as §1

[9] = system: CHEAL (Lambsquarters, Common); experiment: Postemergence herbicidal evaluation; type: in vivo, Chenopodium album; settings: postemergence
Procedure, shortened: as §1

[10] = system: ORYSAT (Rice, Tebonnet); experiment: Preemergence herbicidal evaluation; type: in vivo, Oryza sativa, (L.) Tebonnet; settings: preemergence, rated 4-5 weeks after treatment, 0-9 scale
Procedure, shortened: as §2

[11] = system: GALAP (Galium); experiment: Preemergence herbicidal evaluation; type: in vivo, Galium aparine; settings: preemergence, rated 4-5 weeks after treatment, 0-9 scale
Procedure, shortened: as §2

[12] = system: TRZAWR (Wheat, Winter, cv Riband); experiment: Preemergence herbicidal evaluation; type: in vivo, Triticum aestivum; settings: preemergence, rated 4-5 weeks after treatment, 0-9 scale
Procedure, shortened: as §2

[13] = system: GLXMAW (Soybean, Williams); experiment: Preemergence herbicidal evaluation; type: in vivo, Glycine max, (L.) Merr. cv Williams; settings: preemergence, rated 4-5 weeks after treatment, 0-9 scale
Procedure, shortened: as §2

[14] = system: SETVI (Foxtail, Green); experiment: Preemergence herbicidal evaluation; type: in vivo, Setaria viridis; settings: preemergence, rated 4-5 weeks after treatment, 0-9 scale
Procedure, shortened: as §2

In the case of CCS(=O)(=O)NC(=O)CC1SC(=Nc2cc(-n3c(=O)cc(C(F)(F)F)n(C)c3=O)c(F)cc2Cl)N(C)C1=O (stereo not shown) [Compound 105, 2-{{2-Chloro-5-[3,6-dihydro-3-methyl-2,6-dioxo-4-(trifluoromethyl)-1(2H)-pyrimidinyl]-4-fluorophenyl}imino}-N-(ethylsulfonyl)-3-methyl-4-oxo-5-thiazolidineacetamide], the “herbicidal rating ORYSAT” value ([1]; rate 0.0156 kg/ha) is reported as 0.0, the “herbicidal rating ORYSAT” value ([1]; rate 0.0313 kg/ha) is reported as 0.0 and the “herbicidal rating ORYSAT” value ([1]; rate 0.0625 kg/ha) is reported as 0.0. The “herbicidal rating ORYSAT” value ([1]; rate 0.1250 kg/ha) was 2.0, the ZEAMX rating ([2]; 0.1250 kg/ha) was 0.0 and the ZEAMX rating ([2]; 0.2500 kg/ha) was 1.0. For the same molecule, the ZEAMX rating ([2]; 0.5000 kg/ha) was 2.0, the “herbicidal rating CASOB” value ([3]; rate 0.0156 kg/ha) was 0.0 and the “herbicidal rating CASOB” value ([3]; rate 0.0313 kg/ha) was 0.0. The “herbicidal rating CASOB” value ([3]; rate 0.0625 kg/ha) was 0.0, the “herbicidal rating CASOB” value ([3]; rate 0.1250 kg/ha) was 1.0 and the “MOOVA herbicidal effect rating” value ([4]; 0.0313 kg/ha) was 6.0. For the same molecule, the “MOOVA herbicidal effect rating” value ([4]; 0.0625 kg/ha) was 7.0, the “MOOVA herbicidal effect rating” value ([4]; 0.1250 kg/ha) was 7.0 and the “MOOVA herbicidal effect rating” value ([4]; 0.2500 kg/ha) was 9.0. The “Herbicidal rating CYPSE” value ([5]; Rate 0.0313 kg/ha) was 2.0, the “Herbicidal rating CYPSE” value ([5]; Rate 0.0625 kg/ha) was 5.0 and the “Herbicidal rating CYPSE” value ([5]; Rate 0.1250 kg/ha) was 7.0. For the same molecule, the “Herbicidal rating CYPSE” value ([5]; Rate 0.2500 kg/ha) was 9.0, the “SAGPY herbicidal effect rating” value ([6]; 0.0313 kg/ha) was 3.0 and the “SAGPY herbicidal effect rating” value ([6]; 0.0625 kg/ha) was 5.0. The “SAGPY herbicidal effect rating” value ([6]; 0.1250 kg/ha) was 5.0, the “SAGPY herbicidal effect rating” value ([6]; 0.2500 kg/ha) was 7.0 and the “CYPIR herbicidal effect rating” value ([7]; 0.0313 kg/ha) was 5.0. The “CYPIR herbicidal effect rating” value ([7]; 0.0625 kg/ha) was 7.0, the “CYPIR herbicidal effect rating” value ([7]; 0.1250 kg/ha) was 7.0 and the “CYPIR herbicidal effect rating” value ([7]; 0.2500 kg/ha) was 9.0. For the same molecule, the “herbicidal rating ECHCG” value ([8]; rate 0.0156 kg/ha) was 0.0, the “herbicidal rating ECHCG” value ([8]; rate 0.0313 kg/ha) was 0.0 and the “herbicidal rating ECHCG” value ([8]; rate 0.0625 kg/ha) was 0.0. The “herbicidal rating ECHCG” value ([8]; rate 0.1250 kg/ha) was 3.0, the “herbicidal rating CHEAL” value ([9]; rate 0.0156 kg/ha) was 0.0 and the “herbicidal rating CHEAL” value ([9]; rate 0.0313 kg/ha) was 0.0. For the same molecule, the “herbicidal rating CHEAL” value ([9]; rate 0.0625 kg/ha) was 2.0, the “herbicidal rating CHEAL” value ([9]; rate 0.1250 kg/ha) was 2.0 and the ORYSAT rating ([10]; 0.1250 kg/ha) was 0.0. For the same molecule, the ORYSAT rating ([10]; 0.2500 kg/ha) was 0.0, the ORYSAT rating ([10]; 0.5000 kg/ha) was 0.0 and the GALAP rating ([11]; 0.2500 kg/ha) was 3.0. For the same molecule, the GALAP rating ([11]; 0.5000 kg/ha) was 7.0, the TRZAWR rating ([12]; 0.1250 kg/ha) was 0.0 and the TRZAWR rating ([12]; 0.2500 kg/ha) was 0.0. It also gave a TRZAWR rating ([12]; 0.5000 kg/ha) of 0.0, a GLXMAW rating ([13]; 0.1250 kg/ha) of 0.0 and a GLXMAW rating ([13]; 0.2500 kg/ha) of 0.0. For the same molecule, the GLXMAW rating ([13]; 0.5000 kg/ha) was 0.0, the SETVI rating ([14]; 0.1250 kg/ha) was 0.0 and the SETVI rating ([14]; 0.2500 kg/ha) was 3.0. The SETVI rating ([14]; 0.5000 kg/ha) was 3.0.

From US20020137929A1, “1 - (3-heterocyclylphenyl) isothiourea, -isourea, -guanidine and -amidine herbicidal agents” (Intellectual Property Department, BASF Aktiengesellschaft, priority 1998, published 2002)
